Tests used:
Type in all cases: in vivo
Design in all cases: scale not given here
[1] = tested on: Echinochloa crus-galli (L.) P. Beauv. var. crus-galli; experiment: Herbicidal effects in upland field foliar treatment (Test Example 3); conditions: criteria of Table 138; for herbicidal effects on Echinochloa crus-galli (L.) P. Beauv. var. crus-galli: 1000 g of the active ingredient per hectare, 14th day after the treatment, wettable powder; for herbicidal effect (index) on Echinochloa crus-galli (L.) P. Beauv. var. crus-galli: 1000 g active ingredient per hectare, 14th day after treatment
In short: (§1)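 Post-emergence foliar treatment: two-week-old seedlings from upland field soil received 1000 g a.i./ha (wettable powder, 1000 L water/ha), then returned to the greenhouse for scoring 14 days later.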

Amaranthus viridis L. [2] = experiment: as above; conditions: criteria of Table 138; for herbicidal effects on Amaranthus viridis L.: 1000 g of the active ingredient per hectare, 14th day after the treatment, wettable powder; for herbicidal effect (index) on Amaranthus viridis L.: 1000 g active ingredient per hectare, 14th day after treatment
In short: as §1

[3] = tested on: Abutilon theophrasti medicus; experiment: as above; conditions: criteria of Table 138; for herbicidal effects on Abutilon theophrasti medicus: 1000 g of the active ingredient per hectare, 14th day after the treatment, wettable powder; for herbicidal effect (index) on Abutilon theophrasti medicus: 1000 g active ingredient per hectare, 14th day after treatment
In short: as §1

[4] = tested on: Monochoria vaginalis (Burm. f.) Presl var. plantaginea (Roxb.) Solms-Laub.; experiment: Herbicidal effects in paddy field soil treatment (Test Example 1); conditions: for Herbicidal effects index, Monochoria vaginalis (Burm. f.) Presl var. plantaginea (Roxb.) Solms-Laub.: paddy field soil treatment, 1000 g of the active ingredient per hectare, wettable powder added dropwise on water surface, 21st day after treatment
In short: (§2)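 Flooded-paddy soil treatment under greenhouse conditions: a diluted wettable powder at 1000 g a.i./ha went onto the water surface one day post-sowing, with 3 cm standing water, and weed control was graded on a scoring scale 21 days after treatment.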

[5] = tested on: Scirpus juncoides Roxb. var. ohwianus. T. Koyama; experiment: as above; conditions: for Herbicidal effects index, Scirpus juncoides Roxb. var. ohwianus. T. Koyama: paddy field soil treatment, 1000 g of the active ingredient per hectare, wettable powder added dropwise on water surface, 21st day after treatment
In short: as §2

[6] = tested on: Echinochloa oryzicola Vasing; experiment: as above; conditions: for Herbicidal effects index, Echinochloa oryzicola Vasing: paddy field soil treatment, 1000 g of the active ingredient per hectare, wettable powder added dropwise on water surface, 21st day after treatment
In short: as §2

Amaranthus viridis L. [7] = experiment: Herbicidal effects in upland field soil treatment (Test Example 2); conditions: 1000 g active ingredient per hectare, 21st day after treatment, criteria of Table 138
In short: (§3)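 Soil-applied before emergence at 1000 g a.i./ha as water-diluted wettable powder; greenhouse-grown plants rated for herbicidal damage 21 days post-treatment.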

[8] = tested on: Abutilon theophrasti medicus; experiment: as above; conditions: 1000 g active ingredient per hectare, 21st day after treatment, criteria of Table 138
In short: as §3

[9] = paddy field soil treatment (Test Example 1), criteria of Table 138

Compound | herbicidal effects on Echinochloa crus-galli (L.) P. Beauv. var. crus-galli [1] | herbicidal effects on Amaranthus viridis L. (Amaranthus viridis L. [2]) | herbicidal effects on Abutilon theophrasti medicus [3] | Herbicidal effects index, Monochoria vaginalis (Burm. f.) Presl var. plantaginea (Roxb.) Solms-Laub. [4] | Herbicidal effects index, Scirpus juncoides Roxb. var. ohwianus. T. Koyama [5] | Herbicidal effects index, Echinochloa oryzicola Vasing [6] | herbicidal effect (index) on Amaranthus viridis L. (Amaranthus viridis L. [7]) | herbicidal effect (index) on Abutilon theophrasti medicus [8] | herbicidal effect (index) on Echinochloa crus-galli (L.) P. Beauv. var. crus-galli [1] | herbicidal effect (index) on Amaranthus viridis L. (Amaranthus viridis L. [2]) | herbicidal effect (index) on Abutilon theophrasti medicus [3] | herbicidal effect (index) on Monochoria vaginalis (Burm. f.) Presl var. plantaginea (Roxb.) Solms-Laub. [4, 9] | herbicidal effect (index) on Scirpus juncoides Roxb. var. ohwianus. T. Koyama [5, 9] | herbicidal effect (index) on Echinochloa oryzicola Vasing [6, 9]
COc1cc(OC)cc(-n2c(=O)c(C(=O)C3=C(O)CCCC3=O)nc3ccccc32)c1 [II-173] | 4 | 5 | 5 | 5 | 5 | 5 | 5 | 4 | – | – | – | – | – | –
O=C1CCCC(O)=C1C(=O)c1nc2cccnc2n(Cc2cccc(C(F)(F)F)c2)c1=O [III-118] | 5 | 5 | 5 | 5 | 5 | 5 | 5 | 5 | – | – | – | – | – | –
O=C1CCCC(O)=C1C(=O)c1nc2ccccc2n(-c2cccc(OC(F)(F)F)c2)c1=O [II-101] | 5 | 5 | 5 | 5 | 5 | 5 | 5 | 5 | – | – | – | – | – | –
COc1ccc(-n2c(=O)c(C(=O)C3=C(O)CCCC3=O)nc3ccccc32)cc1 [II-62] | 4 | 5 | 5 | 5 | 5 | 5 | 5 | 5 | – | – | – | – | – | –
O=C1CCCC(O)=C1C(=O)c1nc2ccccc2n(-c2cccc(F)c2)c1=O [II-7] | – | – | – | 5 | 5 | 5 | 5 | 5 | 5 | 5 | 5 | – | – | –
COc1cc(F)c(-n2c(=O)c(C(=O)C3=C(O)CCCC3=O)nc3ccccc32)cc1F [II-219] | 5 | 5 | 5 | 5 | 5 | 5 | 5 | 5 | – | – | – | – | – | –
CC1(C)CCC(=O)C(C(=O)c2nc3ccccc3n(-c3ccc4c(c3)OCCO4)c2=O)=C1O [II-227] | 5 | 5 | 4 | 5 | 5 | 5 | 5 | 5 | – | – | – | – | – | –
COCCn1c(=O)c(C(=O)C2=C(O)CCCC2=O)nc2ccccc21 [Compound I-88] | – | – | – | 5 | 5 | 5 | 5 | 5 | 5 | 5 | 5 | – | – | –
O=C1CCCC(O)=C1C(=O)c1nc2cccnc2n(-c2ccccc2F)c1=O [IV-6] | 4 | 5 | 5 | 5 | 5 | 4 | 5 | 5 | – | – | – | – | – | –
Cc1cccnc1-n1c(=O)c(C(=O)C2=C(O)CCCC2=O)nc2ccccc21 [I-272] | – | – | – | 5 | 5 | 5 | 5 | 5 | 5 | 5 | 5 | – | – | –
CC1(C)CC(=O)C(C(=O)c2nc3cccnc3n(-c3cccc(C(F)(F)F)c3)c2=O)=C(O)C1 [IV-41] | 5 | 5 | 5 | 5 | 5 | 5 | 5 | 5 | – | – | – | – | – | –
CC1(C)CCC(=O)C(C(=O)c2cnc3ccccc3n2)=C1O [comparative compound D, reference compound] | 0 | 1 | 4 | – | – | – | 3 | 0 | – | – | – | 4 | 2 | 1
O=C1CCCC(O)=C1C(=O)c1nc2ccccc2n(C2CC2)c1=O [Compound I-14] | – | – | – | 5 | 5 | 4 | 5 | 5 | 4 | 5 | 5 | – | – | –
O=C1CCCC(O)=C1C(=O)c1nc2ccccc2n(-c2cccc3c2OCCO3)c1=O [II-226] | 5 | 5 | 5 | 5 | 5 | 5 | 5 | 5 | – | – | – | – | – | –
CCOC(=O)Cn1c(=O)c(C(=O)C2=C(O)CCCC2=O)nc2cccnc21 [III-96] | 5 | 5 | 5 | 5 | 5 | 5 | 5 | 5 | – | – | – | – | – | –
O=C(C1=C(O)C2CCC(C2)C1=O)c1nc2ccccc2n(-c2ccc(Cl)cc2)c1=O (stereo not drawn) [II-14] | 5 | 5 | 4 | 5 | 5 | 5 | 5 | 5 | – | – | – | – | – | –
O=C1CCCC(O)=C1C(=O)c1nc2cccnc2n(-c2ccc(C(F)(F)F)cc2)c1=O [IV-44] | 5 | 5 | 5 | 5 | 5 | 5 | 5 | 5 | – | – | – | – | – | –
O=C1CCCC=C1C(=O)c1nc2ccccc2n(-c2ccccc2[N+](=O)[O-])c1=O [II-129] | 5 | 5 | 5 | 5 | 5 | 5 | 5 | 5 | – | – | – | – | – | –

From US8389523B2, “Substituted quinoxaline and an agrochemical composition thereof” (Kumiai Chemical Industry Co., Ltd., priority 2007, dated 2013)
